Consider 43 molecules from US8716475B2, “2-aminopyrimidine modulators of the histamine H4 receptor” (Janssen Pharmaceutica NV, priority 2007, dated 2014).

A value given as a limit tells only on which side of the number the result lay.

The target of one assay is T1, human H4 receptor (Homo sapiens, UniProt Q9H3N8).
T1 construct: expressed in transfected cells
T1 sequence (Q9H3N8 whole entry): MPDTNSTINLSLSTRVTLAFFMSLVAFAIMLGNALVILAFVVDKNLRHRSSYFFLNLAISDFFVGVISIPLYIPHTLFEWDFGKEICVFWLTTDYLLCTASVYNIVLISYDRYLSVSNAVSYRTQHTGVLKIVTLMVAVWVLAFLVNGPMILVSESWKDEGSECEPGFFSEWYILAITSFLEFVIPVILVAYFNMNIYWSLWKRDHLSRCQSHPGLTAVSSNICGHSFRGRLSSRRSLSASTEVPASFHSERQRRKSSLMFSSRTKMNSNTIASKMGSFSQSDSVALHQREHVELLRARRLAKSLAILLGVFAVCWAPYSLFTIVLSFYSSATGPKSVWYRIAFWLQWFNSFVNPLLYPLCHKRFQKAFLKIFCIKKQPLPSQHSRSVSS
The experiment in a line: Binding Assay on Recombinant Human Histamine H4 Receptor. Particulars: Table 1; [3H] histamine competition binding, membranes of SK-N-MC cells transfected with human H4 receptor; average of results. As to the method:
Binding Assay on Recombinant Human Histamine H4 Receptor.
Cell pellets from SK-N-MC cells stably or transiently transfected with human H4 receptor were used for the binding assays. Cell pellets were homogenized in 50 mM Tris/5 mM EDTA buffer and supernatants from an 800g spin were collected and recentrifuged at 30,000g for 30 min. Pellets were rehomogenized in 50 mM Tris/5 mM EDTA buffer. […] Compounds were tested in free base, hydrochloride salt, or trifluoroacetic acid form. Nonspecific binding was defined with 100 μM cold histamine. […] Membranes were harvested by rapid filtration using the 96 well Brandel system or a cell harvester using a Whatman GF/C filter or filter plates treated with 0.5% polyethylenimine (PEI), and washed 4 times with ice-cold 50 mM Tris/5 mM EDTA buffer. Filters were then dried, mixed with scintillant and radioactive counts were determined. […] Data marked with an asterisk (*) were obtained by the cell harvester method. Where activity is shown as greater than (>) a particular value, the value is the highest concentration tested.
One may read the Ki as a measure of affinity in units of concentration, obtained from inhibition or displacement. `Cc1nc(N)nc(N2C[C@@H]3C[C@H]2CN3)c1C` [Example 32, (S,S)-4-(2,5-Diaza-bicyclo[2.2.1]hept-2-yl)-5,6-dimethyl-pyrimidin-2-ylamine]: the Ki is above 10000 nM.

`CN[C@@H]1CCN(c2nc(N)nc3c2CCCC3)C1` [Example 69, (R)-4-(3-Methylamino-pyrrolidin-1-yl)-5,6,7,8-tetrahydro-quinazolin-2-ylamine]: the Ki was 43 nM.

Consider `CC(C)c1cc(N2C[C@H]3CN(C)C[C@H]3C2)nc(N)n1` [Example 18, 4-Isopropyl-6-(cis-5-methyl-hexahydro-pyrrolo[3,4-c]pyrrol-2-yl)-pyrimidin-2-ylamine], for which the Ki was 17 nM.

Take `Nc1nc(C2CCOC2)cc(N2CCNCC2)n1` (stereo not shown) [Example 56, 4-piperazin-1-yl-6-(tetrahydro-furan-3-yl)-pyrimidin-2-ylamine]: the Ki turned out to be 20 nM.

Take `CC(C)c1cc(N2CC3CCCNC3C2)nc(N)n1` (stereo not drawn) [Example 19, 4-Isopropyl-6-(cis-octahydro-pyrrolo[3,4-b]pyridin-6-yl)-pyrimidin-2-ylamine]: the Ki was found to be 8 nM.

In the case of `CN1C[C@@H]2CN(c3cc(C4CCC4)nc(N)n3)C[C@@H]2C1` [Example 49, 4-Cyclobutyl-6-(cis-5-methyl-hexahydro-pyrrolo[3,4-c]pyrrol-2-yl)-pyrimidin-2-ylamine], the Ki was determined as 50 nM.

With `Nc1nc2c(c(N3CC4CCCNC4C3)n1)CCCC2` (stereo not drawn) [Example 71, 4-(cis-Octahydro-pyrrolo[3,4-b]pyridin-6-yl)-5,6,7,8-tetrahydro-quinazolin-2-ylamine], the Ki is 5 nM.

As for `CCc1cc(N2CC[C@@H](NC)C2)nc(N)n1` [Example 36, (R)-4-Ethyl-6-(3-methylamino-pyrrolidin-1-yl)-pyrimidin-2-ylamine], the Ki was 21 nM.

In the case of `CCc1cc(N2C[C@H]3CCN[C@H]3C2)nc(N)n1` [Example 37, (R,R)-(4-Ethyl-6-hexahydro-pyrrolo[3,4-b]pyrrol-5-yl)-pyrimidin-2-ylamine], the Ki was 27 nM.

`CN1CCN(c2cc(C3CCOCC3)nc(N)n2)CC1` [Example 59, 4-(4-Methyl-piperazin-1-yl)-6-(tetrahydro-pyran-4-yl)-pyrimidin-2-ylamine]: the inhibitory constant (Ki) stood at 29 nM.

As for `CN[C@@H]1CCN(c2cc(C3CC3)nc(N)n2)C1` [Example 41, (R)-(4-Cyclopropyl-6-3-methylamino-pyrrolidin-1-yl)-pyrimidin-2-ylamine], the Ki came out at 28 nM.

On to `CC(C)c1cc(N2CCNCC2)nc(N)n1` [Example 8, 4-Isopropyl-6-piperazin-1-yl-pyrimidin-2-ylamine], for which the Ki turned out to be 3 nM.

In the case of `CC(C)c1cc(N2CC[C@@H](N)C2)nc(N)n1` [Example 12, (R)-4-(3-Amino-pyrrolidin-1-yl)-6-isopropyl-pyrimidin-2-ylamine], the Ki was 18 nM.

For the molecule `CC(C)c1cc(N2CCC[C@@H](N)C2)nc(N)n1` [Example 9, (R)-4-(3-Amino-piperidin-1-yl)-6-isopropyl-pyrimidin-2-ylamine], the Ki came to 820 nM.

For the molecule `CN1CCN(c2cc(C3CCCC3)nc(N)n2)CC1` [Example 2, 4-Cyclopentyl-6-(4-methyl-piperazin-1-yl)-pyrimidin-2-ylamine], the Ki turned out to be 1 nM.

Turning to `CN[C@@H]1CCN(c2cc(C(C)C)nc(N)n2)C1` [Example 11, (R)-4-Isopropyl-6-(3-methylamino-pyrrolidin-1-yl)-pyrimidin-2-ylamine], the Ki was determined as 12 nM.

The same assay, now with this note: Table 2, data marked with an asterisk (*): obtained by the cell harvester method; [3H] histamine competition binding, SK-N-MC membranes.
Turning to `CN(CCN)c1cc(Cc2ccccc2)nc(N)n1` [Example 250, N^4-(2-Amino-ethyl)-6-benzyl-N^4-methyl-pyrimidine-2,4-diamine], the Ki was determined as 564 nM.

In the case of `CCCCc1nc(N)nc(N2CC[C@@H](N)C2)c1OC` [Example 104, (R)-4-(3-Amino-pyrrolidin-1-yl)-6-butyl-5-methoxy-pyrimidin-2-ylamine], the Ki is 96 nM.

Staying with this assay, now noted: Table 2; [3H] histamine competition binding, membranes of SK-N-MC cells transfected with human H4 receptor; average of results.
Turning to `CCCCc1nc(N)nc(N2CCN(C)CC2)c1OC` [Example 108, 4-Butyl-5-methoxy-6-(4-methyl-piperazin-1-yl)-pyrimidin-2-ylamine], the inhibition constant (Ki) amounted to 84 nM.

Take `Nc1nc(C2CCCC2)cc(N2CC3NCCOC3C2)n1` (single isomer, unassigned) [Example 88, 4-Cyclopentyl-6-(cis-hexahydro-pyrrolo[3,4-b][1,4]oxazin-6-yl)-pyrimidin-2-ylamine]: the Ki was determined as 520 nM.

In the case of `CCCCc1cc(N2CC[C@@H](NC)C2)nc(N)n1` [Example 137, (R)-4-Butyl-6-(3-methylamino-pyrrolidin-1-yl)-pyrimidin-2-ylamine], the Ki was 2 nM.

For the molecule `CN[C@H]1CCN(c2cc(C(C)C)nc(N)n2)C1` [Example 125, (S)-4-Isopropyl-6-(3-methylamino-pyrrolidin-1-yl)-pyrimidin-2-ylamine], the Ki was found to be 7 nM.

Regarding `CC(C)c1cc(N2CCC3(CCCN3)C2)nc(N)n1` (stereo not shown) [Example 91, 4-(1,7-Diaza-spiro[4.4]non-7-yl)-6-isopropyl-pyrimidin-2-ylamine], the inhibition constant (Ki) stood at 84 nM.

As to `Nc1nc(CC2CCCO2)cc(N2CCNCC2)n1` (stereo not shown) [Example 230, 4-piperazin-1-yl-6-(tetrahydro-furan-2-ylmethyl)-pyrimidin-2-ylamine], the Ki is 25 nM.

For `CN[C@H]1CCN(c2nc(N)nc(C3CCCC3)c2OC)C1` [Example 114, (S)-4-Cyclopentyl-5-methoxy-6-(3-methylamino-pyrrolidin-1-yl)-pyrimidin-2-ylamine], the Ki turned out to be 71 nM.

Consider `CN1CCN(c2cc(C3CC3c3ccccc3)nc(N)n2)CC1` (stereo not drawn) [Example 158, 4-(4-Methyl-piperazin-1-yl)-6-(trans-2-phenyl-cyclopropyl)-pyrimidin-2-ylamine], for which the Ki was found to be 8 nM.

Consider `Nc1nc(Cc2ccc(Cl)cc2)cc(N2C[C@H]3CNC[C@H]3C2)n1` [Example 237, 4-(4-Chloro-benzyl)-6-(cis-hexahydro-pyrrolo[3,4-c]pyrrol-2-yl)-pyrimidin-2-ylamine], for which the Ki was 257 nM.

For `CC(C)Cc1cc(N2CCN(C)CC2)nc(N)n1` [Example 146, 4-Isobutyl-6-(4-methyl-piperazin-1-yl)-pyrimidin-2-ylamine], the Ki was found to be 3 nM.

For the molecule `Nc1nc(C2CCOC2)cc(N2CCNCC2)n1` (single isomer, unassigned; (+)) [Example 194, (+)-4-piperazin-1-yl-6-(tetrahydro-furan-3-yl)-pyrimidin-2-ylamine], the inhibition constant Ki is 49 nM.

For the molecule `CC(C)(C)c1cc(N2CC[C@H](N)C2)nc(N)n1` [Example 129, (S)-4-(3-Amino-pyrrolidin-1-yl)-6-tert-butyl-pyrimidin-2-ylamine], the Ki is 46 nM.

With `Nc1nc2c(c(N3CCNCC3)n1)COCC2` [Example 100, 4-piperazin-1-yl-7,8-dihydro-5H-pyrano[4,3-d]pyrimidin-2-ylamine], the inhibition constant (Ki) turned out to be 262 nM.

`Nc1nc(Cc2ccncc2)cc(N2CCNCC2)n1` [Example 204, 4-piperazin-1-yl-6-pyridin-4-ylmethyl-pyrimidin-2-ylamine]: the Ki was 45 nM.

With `CN1CCN(c2cc(Cc3ccc(Cl)cc3)nc(N)n2)CC1` [Example 232, 4-(4-Chloro-benzyl)-6-(4-methyl-piperazin-1-yl)-pyrimidin-2-ylamine], the Ki was found to be 8 nM.

For the molecule `Cc1nc(N)nc(N2CCNCC2)c1F` [Example 201, 5-Fluoro-4-methyl-6-piperazin-1-yl-pyrimidin-2-ylamine], the Ki is 391 nM.

Take `NCCNc1cc(C2CCOCC2)nc(N)n1` [Example 176, N^4-(2-Amino-ethyl)-6-(tetrahydro-pyran-4-yl)-pyrimidine-2,4-diamine]: the Ki amounted to 335 nM.

In the case of `CN1C[C@@H]2CN(c3cc(C4CCCC4)nc(N)n3)C[C@@H]2C1` [Example 82, 4-Cyclopentyl-6-(cis-5-methyl-hexahydro-pyrrolo[3,4-c]pyrrol-2-yl)-pyrimidin-2-ylamine], the Ki was found to be 25 nM.

`COc1c(C2CCCC2)nc(N)nc1N1CCCNCC1` [Example 112, 4-Cyclopentyl-6-[1,4]diazepan-1-yl-5-methoxy-pyrimidin-2-ylamine]: the Ki is 46 nM.

`Nc1nc(C2CCCC2)cc(N2CCC3(CCCN3)C2)n1` (single isomer, unassigned) [Example 257, 4-Cyclopentyl-6-(cis-1,7-diaza-spiro[4.4]non-7-yl)-pyrimidin-2-ylamine]: the Ki stood at 31 nM.

On to `Cc1nc(N)nc(N2CC3CCCNC3C2)c1F` (stereo not shown) [Example 200, 5-Fluoro-4-methyl-6-(octahydro-pyrrolo[3,4-b]pyridin-6-yl)-pyrimidin-2-ylamine], for which the Ki worked out at 235 nM.

Regarding `CCCCc1cc(N2CCNCC2)nc(N)n1` [Example 142, 4-Butyl-6-piperazin-1-yl-pyrimidin-2-ylamine], the Ki was found to be 3 nM.

For the molecule `NCCNc1cc(C2CC2c2ccccc2)nc(N)n1` (stereo not drawn) [Example 159, N^4-(2-Amino-ethyl)-6-(trans-2-phenyl-cyclopropyl)-pyrimidine-2,4-diamine], the inhibition constant Ki stood at 42 nM.

For `Nc1nc(C2CCCC2)cc(N2CCC3(CCCN3)C2)n1` (single isomer, unassigned) [Example 258, 4-Cyclopentyl-6-(cis-1,7-diaza-spiro[4.4]non-7-yl)-pyrimidin-2-ylamine], the Ki was found to be 34 nM.

Take `Nc1nc(C2CCOC2)cc(N2CC3CCCNC3C2)n1` (stereo not drawn) [Example 190, 4-(cis-Octahydro-pyrrolo[3,4-b]pyridin-6-yl)-6-(tetrahydro-furan-3-yl)-pyrimidin-2-ylamine]: the Ki was 11 nM.
